# Results from EP0943615A1, “1,4-DIHYDROPYRIDINE DERIVATIVES” (Nikken Chemicals Company, Limited, priority 1996, dated 1998).
# System: VJ-300 cells
# Test: In vitro test of action suppressing proliferation of cancer cells, combined administration of doxorubicin (colony formation), resistant cells
# Type: cell-based, Human
# Details: ADM alone or ADM + test compound 1 µg/ml, LD50 of ADM relative to ADM alone in KB cells = 1, 7 days incubation, colony count
# Procedure: Human rhinopharynx cancer derived KB cells (i.e., sensitive cells) and their multi-drug resistant clone VJ-300 cells (i.e., resistant cells) were used as the test cells. As the incubation solutions, use was made of 10% fetal calf serum (Flow Laboratories) and Eagle MEM medium (Nissui Seiyaku) containing 0.292 mg/ml of L-glutamine (Flow Laboratories). The tests of the action for overcoming resistance to anti-cancer drugs or action for increasing the effect of the anti-cancer drug with the combined administration of the anti-cancer drug doxorubicin (i.e., adriamycin, ADM) and the test compound were performed as follows:
# The test cells were suspended in incubation solutions and adjusted to a cell density of about 200 cells/ml. The cell suspensions were injected in 2 ml amounts into petri dishes and were incubated in a CO2 gas incubator (5% CO2, 95% air) at 37°C for 24 hours. Then, 5 µl of a predetermined concentration of the aqueous ADM solution and a predetermined concentration of a DMSO solution of the test compound were added, then the incubation was continued for a further 7 days. After the end of the incubation, the result was immobilized with methanol, Giemsa stained and measured for the number of colonies per dish. The results were used to prepare a volume-reaction curve. […] The results are shown in Table 8 to Table 10 using the concentration of LD50 of ADM in the ADM alone group by KB cells as the resistance degree 1 and calculating the resistances of the following LD50 concentrations as relative ratios. […]
row,Structure (SMILES),Degree of resistance for ADM VJ-300
1,"COC(=O)C1=C(c2ccc(-n3c(C)nc4cnccc43)cc2)NC(C)=C(C(=O)OC/C=C/c2cccnc2)C1/C=C/c1ccccc1 (stereo not shown) [Compound 42, 6-methyl-2-[4-(2-methylimidazo[4,5-c]pyridin-1-yl)phenyl]-4-[(E)-2-phenylethenyl]-1,4-dihydropyridin-3,5-dicarboxylate 3-methylester, 5-[(E)-3-(3-pyridyl)-2-propenyl]ester]",2.1
2,"COC(=O)C1=C(c2ccc(-n3ccnc3)cc2)NC(C)=C(C(=O)OC/C=C/c2cccnc2)C1C#Cc1ccccc1 (stereo not shown) [Compound 40, 2-[4-(1-imidazolyl)phenyl]-6-methyl-4-phenylethynyl-1,4-dihydropyridin-3,5-dicarboxylate 3-methylester, 5-[(E)-3-(3-pyridyl)-2-propenyl]ester]",2.5
3,"CCCCCC1C(C(=O)OCCCc2cccnc2)=C(C)NC(c2ccc(-n3c(C)nc4cnccc43)cc2)=C1C(=O)OCC (stereo not shown) [Compound 7, 6-methyl-2-[4-(2-methylimidazo[4,5-c]pyridin-1-yl)phenyl]-4-pentyl-1,4-dihydropyridin-3,5-dicarboxylate 3-ethylester, -5-[3-(3-pyridyl)propyl]ester]",2.8
4,"CCCCCC1C(C(=O)OCCCN2CCN(C(c3ccccc3)c3ccccc3)CC2)=C(C)NC(c2ccc(-n3c(C)nc4ncccc43)cc2)=C1C(=O)OCC (stereo not shown) [Compound 5, 6-methyl-2-[4-(2-methylimidazo[4,5-b]pyridin-1-yl)phenyl]-4-pentyl-1,4-dihydropyridin-3,5-dicarboxylate 3-ethylester, 5-[3-(4-benzhydrylpiperadin-1-yl)propyl]ester]",4.6
5,"COC(=O)C1=C(c2ccc(-n3ccnc3)cc2)NC(C)=C(C(=O)OC/C=C/c2cccnc2)C1C1CCCCC1 (stereo not shown) [Compound 38, 4-cyclohexyl-2-[4-(1-imidazolyl)phenyl]-6-methyl-1,4-dihydropyridin-3,5-dicarboxylate 3-methylester, 5-[(E)-3-(3-pyridyl)-2-propenyl]ester]",2.4
6,"CCOC(=O)C1=C(c2ccc(-n3c(C)nc4cnccc43)cc2)NC(C)=C(C(=O)OCCCCCc2cccnc2)C1CCc1ccccc1 (stereo not shown) [Compound 18, 6-methyl-2-[4-(2-methylimidazo[4,5-c]pyridin-1-yl)phenyl]-4-(2-phenylethyl)-1,4-dihydropyridin-3,5-dicarboxylate 3-ethylester, 5-[5-(3-pyridyl)pentyl]ester]",1.4
7,"CCOC(=O)C1=C(c2ccc(-n3c(C)nc4cnccc43)cc2)NC(C)=C(C(=O)OC/C=C(/c2cccnc2)c2cccs2)C1CCc1ccccc1 (stereo not shown) [Compound 20, 6-methyl-2-[4-(2-methylimidazo[4,5-c]pyridin-1-yl)phenyl]-4-(2-phenylethyl)-1,4-dihydropyridin-3,5-dicarboxylate 3-ethylester, 5-[(Z]-3-(3-pyridyl)-3-(2-thienyl)-2-propenyl]ester]",1.6
8,"CCOC(=O)C1=C(c2ccc(-n3c(C)nc4cnccc43)cc2)NC(C)=C(C(=O)OC/C=C/c2cccnc2)C1CCC1CCCCC1 (stereo not shown) [Compound 28, 4-(2-cyclohexylethyl)-6-methyl-2-[4-(2-methylimidazo[4,5-c]pyridin-1-yl)phenyl]-1,4-dihydropyridin-3,5-dicarboxylate 3-ethylester, 5-[(E)-3-(3-pyridyl)-2-propenyl]ester]",1.7
9,"COc1cccc2c1C(=O)c1c(O)c3c(c(O)c1C2=O)C[C@@](O)(C(=O)CO)C[C@@H]3O[C@H]1C[C@H](N)[C@H](O)[C@H](C)O1 [ADM, doxorubicin, reference compound]",26 - 51
10,"CCOC(=O)C1=C(c2ccc(-n3cnc4ccccc43)cc2)NC(C)=C(C(=O)OCCCC(=O)c2cccnc2)C1C=C1CCCCC1 (stereo not shown) [Compound 48, 4-cyclohexylidenemethyl-6-methyl-2-[4-(1-benzimidazolyl)phenyl]-1,4-dihydropyridin-3,5-dicarboxylate 3-ethylester, 5-(3-nicotinoylpropyl)ester]",1.7
11,"CCOC(=O)C1=C(c2ccc(-n3c(C)nc4cnccc43)cc2)NC(C)=C(C(=O)OC/C=C/c2cccnc2)C1CCc1ccsc1 (stereo not shown) [Compound 26, 6-methyl-2-[4-(2-methylimidazo[4,5-c]pyridin-1-yl)phenyl]-4-[2-(3-thienyl)ethyl)-1,4-dihydropyridin-3,5-dicarboxylate 3-ethylester, 5-[(E)-3-(3-pyridyl)-2-propenyl]ester]",1.8
12,"CCOC(=O)C1=C(c2ccc(N3CCOCC3)cc2)NC(C)=C(C(=O)OC/C=C/c2cccnc2)C1/C=C/c1ccccc1 (stereo not shown) [Compound 34, 6-methyl-2-(4-morpholinophenyl)-4-[(E)-2-phenylethenyl]-1,4-dihydropyridin-3,5-dicarboxylate 3-ethylester, 5-[(E)-3-(3-pyridyl)-2-propenyl]ester]",3.0
13,"COC(=O)C1=C(c2ccc(-n3ccnc3)cc2)NC(C)=C(C(=O)OC/C=C/c2cccnc2)C1/C=C/c1ccccc1 (stereo not shown) [Compound 39, 2-[4-(1-imidazolyl)phenyl]-6-methyl-1,4-dihydropyridin-4-[(E)-2-phenylethenyl]-3,5-dicarboxylate 3-methylester, 5-[(E)-3-(3-pyridyl)-2-propenyl]ester]",1.2
14,"CCCCCC1C(C(=O)OCCCc2cccnc2)=C(C)NC(c2ccc(-n3ccnc3)cc2)=C1C(=O)OCC (stereo not shown) [Compound 44, 2-[4-(1-imidazolyl)phenyl]-6-methyl-4-pentyl-1,4-dihydropyridin-3,5-dicarboxylate 3-ethylester, 5-[3-(3-pyridyl)propyl]-ester]",1.4
15,"CCCCCC1C(C(=O)OCC=Cc2cccnc2)=C(C)NC(c2ccc(-n3c(C)nc4ncccc43)cc2)=C1C(=O)OCC (stereo not shown) [Compound 4, 6-methyl-2-[4-(2-methylimidazo[4,5-b]pyridin-1-yl)phenyl]-4-pentyl-1,4-dihydropyridin-3,5-dicarboxylate 3-ethylester, 5-[3-(3-pyridyl)-2-propenyl]ester]",1.2
16,"CCOC(=O)C1=C(c2ccc(-n3c(C)nc4cnccc43)cc2)NC(C)=C(C(=O)OCCCC(=O)c2cccnc2)C1CCCC1CCCCC1 (stereo not shown) [Compound 45, 4-(3-cyclohexylpropyl)-6-methyl-2-[4-(2-methylimidazo[4,5-c]pyridin-1-yl)phenyl]-1,4-dihydropyridin-3,5-dicarboxylate 3-ethylester, 5-(3-nicotinoylpropyl)ester]",2.6
17,"CCOC(=O)C1=C(c2ccc(-n3c(C)nc4cnccc43)cc2)NC(C)=C(C(=O)OCCCc2cccnc2)C1Cc1ccccc1 (stereo not shown) [Compound 12, 4-benzyl-6-methyl-2-[4-(2-methylimidazo[4,5-c]pyridin-1-yl)phenyl]-1,4-dihydropyridin-3,5-dicarboxylate 3-ethylester, 5-[3-(3-pyridyl)propyl]ester]",6.5
18,"CCOC(=O)C1=C(c2ccc(SC)cc2)NC(C)=C(C(=O)OC/C=C/c2cccnc2)C1/C=C/c1ccccc1 (stereo not shown) [Compound 31, 6-methyl-2-(4-methylthiophenyl)-1,4-dihydropyridin-4-[(E)-2-phenylethenyl]-3,5-dicarboxylate 3-ethylester, 5-[(E)-3-(3-pyridyl)-2-propenyl]ester]",2.6
19,"CCOC(=O)C1=C(c2ccc(N3CCN(C)CC3)cc2)NC(C)=C(C(=O)OC/C=C/c2cccnc2)C1/C=C/c1ccccc1 (stereo not shown) [Compound 30, 6-methyl-2-[4-(4-methylpiperadin-1-yl)phenyl]-1,4-dihydropyridin-4-[(E)-2-phenylethenyl]-3,5-dicarboxylate 3-ethylester, 5-[(E)-3-(3-pyridyl)-2-propenyl]ester]",1.0
20,"CCOC(=O)C1=C(c2ccc(-n3c(C)nc4cnccc43)cc2)NC(C)=C(C(=O)OCCCC(=O)c2cccnc2)C1C=C1CCCCC1 (stereo not shown) [Compound 46, 4-cyclohexylidenemethyl-6-methyl-2-[4-(2-methylimidazo[4,5-c]pyridin-1-yl)phenyl]-1,4-dihydropyridin-3,5-dicarboxylate 3-ethylester 5-(3-nicotinoylpropyl)ester]",2.5
21,"CCOC(=O)C1=C(c2ccc(-n3nnc4ccccc43)cc2)NC(C)=C(C(=O)OC/C=C/c2cccnc2)C1/C=C/c1ccccc1 (stereo not shown) [Compound 32, 2-[4-(1H-benzotriazol-1-yl)phenyl]-6-methyl-4-[(E)-2-phenylethenyl]-1,4-dihydropyridin-3,5-dicarboxylate 3-ethylester, 5-[(E)-3-(3-pyridyl)-2-propenyl]ester]",1.4
22,"CCCCC1C(C(=O)OCCCc2cccnc2)=C(C)NC(c2ccc(-n3c(C)nc4cnccc43)cc2)=C1C(=O)OCC (stereo not shown) [Compound 6, 4-butyl-6-methyl-2-[4-(2-methylimidazo[4,5-c]pyridin-1-yl)phenyl]-1,4-dihydropyridin-3,5-dicarboxylate 3-ethylester, 5-[3-(3-pyridyl)propyl]ester]",2.8
